Results on ten compounds are retold here after the SangsterLogP compilation.

The structures appear in SMILES notation.

A word on the logP: it is a log measure of how a compound divides between an organic and an aqueous phase. The compound `O=C(NCCCCN1CCC(Nc2cccc(C(F)(F)F)c2)CC1)c1ccc(Br)cc1` showed a logP of 3.76.

On to `O=C(NCCCCN1CCC(c2cccc(C(F)(F)F)c2)CC1)c1ccc(Br)cc1`, for which the logP is 4.28.

Consider `CC(=O)NC1CCC(CCN2CCN(c3cccc(Cl)c3Cl)CC2)CC1` (stereo not given), for which the logP was found to be 4.18.

In the case of `CCC(O)NC1CCC(CCN2CCN(c3cccc(Cl)c3Cl)CC2)CC1` (stereo not given), the logP amounted to 4.29.

For the compound `O=C(CNc1ccc2[nH]c(=O)[nH]c2c1)N1CCC(Cc2ccc(F)cc2)CC1`, the logP was 3.21.

Regarding `O=C(Nc1ccc2[nH]c(=O)oc2c1)C(=O)N1CCC(Cc2ccccc2)CC1`, the logP stood at 3.78.

`N#Cc1cc(N2CCN(CCCCNC(=O)C=Cc3cccnc3)CC2)cc(C(F)(F)F)c1` displayed a logP of 3.62.

In turn, `CS(=O)(=O)N[C@H]1CC[C@H](CCN2CCN(c3cccc(Cl)c3Cl)CC2)CC1` came in with a logP of 4.03.

`O=C(NCCCCN1CCC(Oc2cccc(C(F)(F)F)c2)CC1)c1ccnc2ccccc12` displayed a logP of 4.22.

Compound `N#Cc1cc(N2CCN(CCCCNC(=O)c3cnc4ccccc4c3)CC2)cc(C(F)(F)F)c1` yielded a logP of 4.55.
